PubChem BioAssay AID1963835 (Molecular Pharmacology Branch, DTP, NCI, 2024)

Test system: 699152-130-R-J1-PDC complex spheroid viability
Assay: Anticancer human tumor 699152-130-R-J1-PDC patient-derived pancreatic carcinoma cell line growth inhibition [POLQ]
Settings: for IC50: curve of first compound; for viability, T/C: stronger effect = lower value
Method in brief: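 Three-cell-type spheroids modelling solid tumor plus stroma served as the readout system; POL inhibitors were tested individually and in combination, concentration ranges set by clinical Cmax where known.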

[1] = second compound 0.0316 µM, first compound 0.0316 µM
[2] = second compound 0.0316 µM, first compound 0.1 µM
[3] = second compound 0.0316 µM, first compound 0.316 µM
[4] = second compound 0.0316 µM, first compound 1 µM
[5] = second compound 0.1 µM, first compound 0.0316 µM
[6] = second compound 0.1 µM, first compound 0.1 µM
[7] = second compound 0.1 µM, first compound 0.316 µM
[8] = second compound 0.1 µM, first compound 1 µM
[9] = second compound 0.316 µM, first compound 0.0316 µM
[10] = second compound 0.316 µM, first compound 0.1 µM
[11] = second compound 0.316 µM, first compound 0.316 µM
[12] = second compound 0.316 µM, first compound 1 µM
[13] = second compound 1 µM, first compound 0.0316 µM
[14] = second compound 1 µM, first compound 0.1 µM
[15] = second compound 1 µM, first compound 0.316 µM
[16] = second compound 1 µM, first compound 1 µM
[17] = second compound 3.16 µM, first compound 0.0316 µM
[18] = second compound 3.16 µM, first compound 0.1 µM
[19] = second compound 3.16 µM, first compound 0.316 µM
[20] = second compound 3.16 µM, first compound 1 µM
[21] = second compound 10 µM, first compound 0.0316 µM
[22] = second compound 10 µM, first compound 0.1 µM
[23] = second compound 10 µM, first compound 0.316 µM
[24] = second compound 10 µM, first compound 1 µM
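Note: spheroids exposed to agents for 7 days before viability reading.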
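Throughout, for viability, T/C: percent of DMSO vehicle control viability so 100% = vehicle and 0% = no viable signal.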

Compound: CCc1c2c(nc3ccc(O)cc13)-c1cc3c(c(=O)n1C2)COC(=O)[C@]3(O)CC + Nc1ccc(C#CCN(C(=O)Cc2ncc(C(F)(F)F)cc2C(F)(F)F)c2ccc(F)cc2)nn1
- IC50 (second compound 0.0316 µM): 0.0602 µM
- IC50 (second compound 0.1 µM): 0.0483 µM
- IC50 (second compound 0.316 µM): 0.0668 µM
- IC50 (second compound 1 µM): 0.0363 µM
- IC50 (second compound 3.16 µM): 0.0555 µM
- IC50 (second compound 10 µM): 0.0495 µM
- viability, T/C (second compound 0.0316 µM, first compound 0.00316 µM): 82.1%
- viability, T/C (second compound 0.0316 µM, first compound 0.01 µM): 55.2%
- viability, T/C [1]: 58.4%
- viability, T/C [2]: 47.2%
- viability, T/C [3]: 36.4%
- viability, T/C [4]: 11.4%
- viability, T/C (second compound 0.1 µM, first compound 0.00316 µM): 83.1%
- viability, T/C (second compound 0.1 µM, first compound 0.01 µM): 57.4%
- viability, T/C [5]: 52%
- viability, T/C [6]: 48.3%
- viability, T/C [7]: 32.6%
- viability, T/C [8]: 12.6%
- viability, T/C (second compound 0.316 µM, first compound 0.00316 µM): 72.7%
- viability, T/C (second compound 0.316 µM, first compound 0.01 µM): 61.6%
- viability, T/C [9]: 55.8%
- viability, T/C [10]: 47.1%
- viability, T/C [11]: 32%
- viability, T/C [12]: 8.12%
- viability, T/C (second compound 1 µM, first compound 0.00316 µM): 74.7%
- viability, T/C (second compound 1 µM, first compound 0.01 µM): 55.2%
- viability, T/C [13]: 51.2%
- viability, T/C [14]: 44.3%
- viability, T/C [15]: 30.5%
- viability, T/C [16]: 14.9%
- viability, T/C (second compound 3.16 µM, first compound 0.00316 µM): 88.7%
- viability, T/C (second compound 3.16 µM, first compound 0.01 µM): 66.4%
- viability, T/C [17]: 54.4%
- viability, T/C [18]: 48.5%
- viability, T/C [19]: 29.6%
- viability, T/C [20]: 10.8%
- viability, T/C (second compound 10 µM, first compound 0.00316 µM): 92.2%
- viability, T/C (second compound 10 µM, first compound 0.01 µM): 71.2%
- viability, T/C [21]: 52.2%
- viability, T/C [22]: 44.2%
- viability, T/C [23]: 27.7%
- viability, T/C [24]: 9.98%

Compound: O=C(Nc1ccc(O)c(NS(=O)(=O)c2ccc(F)cc2)c1)c1ccc(-c2ccccc2)cc1 + COC1C(OC(N)=O)C(O)C(Oc2ccc3c(O)c(NC(=O)c4ccc(O)c(CC=C(C)C)c4)c(=O)oc3c2C)OC1(C)C
- IC50 (second compound 0.0316 µM): > 10 µM
- IC50 (second compound 0.1 µM): > 10 µM
- IC50 (second compound 0.316 µM): > 10 µM
- IC50 (second compound 1 µM): > 10 µM
- IC50 (second compound 3.16 µM): > 10 µM
- IC50 (second compound 10 µM): > 10 µM
- viability, T/C [1]: 105%
- viability, T/C [2]: 123%
- viability, T/C [3]: 117%
- viability, T/C [4]: 104%
- viability, T/C (second compound 0.0316 µM, first compound 3.16 µM): 122%
- viability, T/C (second compound 0.0316 µM, first compound 10 µM): 80.8%
- viability, T/C [5]: 103%
- viability, T/C [6]: 104%
- viability, T/C [7]: 117%
- viability, T/C [8]: 101%
- viability, T/C (second compound 0.1 µM, first compound 3.16 µM): 101%
- viability, T/C (second compound 0.1 µM, first compound 10 µM): 94.6%
- viability, T/C [9]: 103%
- viability, T/C [10]: 101%
- viability, T/C [11]: 95.7%
- viability, T/C [12]: 101%
- viability, T/C (second compound 0.316 µM, first compound 3.16 µM): 117%
- viability, T/C (second compound 0.316 µM, first compound 10 µM): 77.3%
- viability, T/C [13]: 115%
- viability, T/C [14]: 99.6%
- viability, T/C [15]: 97.2%
- viability, T/C [16]: 94.5%
- viability, T/C (second compound 1 µM, first compound 3.16 µM): 103%
- viability, T/C (second compound 1 µM, first compound 10 µM): 82.3%
- viability, T/C [17]: 108%
- viability, T/C [18]: 111%
- viability, T/C [19]: 113%
- viability, T/C [20]: 119%
- viability, T/C (second compound 3.16 µM, first compound 3.16 µM): 105%
- viability, T/C (second compound 3.16 µM, first compound 10 µM): 89.5%
- viability, T/C [21]: 95.3%
- viability, T/C [22]: 107%
- viability, T/C [23]: 102%
- viability, T/C [24]: 95.5%
- viability, T/C (second compound 10 µM, first compound 3.16 µM): 103%
- viability, T/C (second compound 10 µM, first compound 10 µM): 86.3%
